{"source": "patent US5147855A", "about": "“Conjugates of VIP and active fragments thereof with hydrophobic moieties and topical compositions for male impotence” (Yeda Research and Development Co. Ltd., priority 1988, dated 1992)", "key": {"[1]": {"system": "sexual behaviour of male rats", "assay": "Sexual behaviour of castrated male rats, topical application of several materials (Table III)", "assay_type": "in vivo, rat", "design": "key to Ejaculations (E): E = Ejaculations", "settings": "for Ejaculations (E) / No. Ob. / Int. Latency: individual rats; for No. Ob. / Int. Latency: castrated 14 days earlier, testosterone 4 μg/100 g BW daily; for Int. Latency: in s", "text": "(§1) The animal model -- All tested rats (Wistar derived from the departmental colony, Hormone Research Department, at the Weizmann Institute of Science), are sexually experienced male rats around 3 months of age (body weight ~250 g). At this age, the rats are castrated by removal of the testes and injected daily with testosterone for at least 14 consecutive days.\n(§2) All rats (males and females) that take part in the experiment are kept in a 12-hour light 12-hour dark cycle. Prior to testing, each male is put in a separate cage for at least 1 hour. A sexually receptive female is introduced to each male. Females were tested for their receptivity by vaginal smearings. The latencies of mounts and intromissions are recorded.\n6 rats, 120 days old, sexually experienced, were tested. The rats were castrated 14 days earlier and were injected with 4 μg/100 g BW of testosterone daily. […] All 6 materials were tested by topical application."}, "penile erection": {"system": "penile erection", "settings": "injection; cited from earlier work"}, "[2]": {"system": "sexual behaviour of male rats", "assay": "Sexual behaviour of castrated, testosterone-treated male rats after intravenous injection (Table I)", "assay_type": "in vivo, rat", "design": "key to Ejaculations (E): E = Ejaculations", "text": "as §1\nas §2, with “recorded. […] Using castrated animals we achieved decreased sexual activity which is expressed by longer intervals between intromissions and less intromissions during the 15 min observation periods.” for “recorded.”\nInitially, we tested a few VIP analogs by injection (intravenously 5-10 μg/animal). As a control we injected saline at identical volumes (5-10 μl).\nRats were castrated and injected daily for 15 consecutive days with testosterone at 4 μg/100 g body weight (BW). Tests were performed with stearyl-VIP or VIP at 10 μg/animal."}, "[3]": {"system": "sexual behaviour of male rats", "assay": "Sexual behaviour of castrated male rats after topical application in DMSO (Table II)", "assay_type": "in vivo, rat", "design": "key to Ejaculations (E): E = Ejaculations", "settings": "for Effect on sexual activity (words): compared with DMSO control", "text": "as §1\nas §2, with “recorded. […] Using castrated animals we achieved decreased sexual activity which is expressed by longer intervals between intromissions and less intromissions during the 15 min observation periods.” for “recorded.”\nAs we have obtained positive results with stearyl-VIP by injection we have now developed a topical application method. This was achieved by mixing 20 μl of 1 μg/ml VIP-stearyl with 10 μl dimethyl sulfoxide (DMSO) and direct topical application on the sex organ.\nRats were castrated and injected daily for 16 consecutive days with testosterone at 2 μg/100 g BW. Testing was performed by topical application of stearyl-VIP-20 μg/20 μl mixed with 10 μl DMSO and compared to topical application of 30 μl DMSO."}, "[4]": {"system": "sexual behaviour of male rats", "assay": "Sexual behaviour of male rats after topical application of ointment (Table IV)", "assay_type": "in vivo", "settings": "ointment applied onto the rat's penis", "text": "as §1\nas §2, with “recorded. […] Using castrated animals we achieved decreased sexual activity which is expressed by longer intervals between intromissions and less intromissions during the 15 min observation periods.” for “recorded.”\nPreparation of Ointment -- Lanolin (1 g), water (3 g) DMSO (7 drops) and 10 mg of stearyl-VIP were manually homogenized in a mortar. An amount of paste, containing 30-50 μg peptide was applied onto the rat's penis and sexual behaviour, following the methodology previously described, was monitored.\n(B) Using the same protocol as in (A) an ointment of VIP-oleyl was prepared and tested."}, "[5]": {"settings": "individual castrated rats, testosterone 4 μg/100 g BW daily 15 days, injection 10 μg/animal, listed as VIP stearyl"}}, "note": "Values joined by “and” are separate entries in the source; they are usually repeats but may differ in a detail not shown here. Identical values can stand only once. No end group written: not given here. NH = not defined here; oleyl = oleyl moiety"}
{"compound": "CCCCCCCCCCCCCCCCCC(=O)O", "note": "[Stearic acid, reference compound]", "values": [{"measurement": "Ejaculations (E)", "setting": "[1]", "result": "E"}, {"measurement": "No. Ob.", "setting": "[1]", "result": "19 and 21"}, {"measurement": "Int. Latency", "setting": "[1]", "result": "26 ± 1 and 18 ± 3 and 36 ± 2"}]}
{"compound": "CC(COc1ccccc1)N(CCCl)Cc1ccccc1", "note": "(stereo not drawn) [phenoxybenzamine]", "values": [{"measurement": "Erection", "setting": "penile erection", "result": "Erection was also obtained"}]}
{"compound": "Stearyl-VIP", "values": [{"measurement": "Intromission latency", "setting": "[2]; [5]", "result": "17 ± 3 s and 28 ± 7 s and 50 ± 17 s and 33 ± 6 s and 37 ± 6 s and 56 ± 8 s and 45 ± 7 s"}, {"measurement": "Obs. = Number of intromissons per 15 minute test period", "setting": "[2]; [5]", "result": "7 and 4 and 12 and 20 and 14 and 6"}, {"measurement": "Ejaculations (E)", "setting": "[2]; individual castrated rats, injection 10 μg/animal", "result": "E"}, {"measurement": "Effect on sexual activity (words)", "setting": "[2]; injection", "result": "potentiates sexual activity in a comparable manner to VIP"}, {"measurement": "Obs. (number of intromissions)", "setting": "[3]; individual castrated rats, testosterone 2 μg/100 g BW daily 16 days, topical 20 μg/20 μl mixed with 10 μl DMSO", "result": "21 and 14 and 10 and 3 and 11 and 25"}, {"measurement": "Intromission latency", "setting": "[3]; individual castrated rats, testosterone 2 μg/100 g BW daily 16 days, topical 20 μg/20 μl mixed with 10 μl DMSO, in s", "result": "23 ± 4 and 29 ± 4 and 32 ± 8 and 16 ± 3 and 38 ± 10 and 18 ± 7 and 24 ± 4"}, {"measurement": "Ejaculations (E)", "setting": "[3]; individual castrated rats, topical in DMSO", "result": "E"}, {"measurement": "Effect on sexual activity (words)", "setting": "[3]; topical in DMSO", "result": "remarkable sexual arousal"}, {"measurement": "Effect on sexual activity (words)", "setting": "[3]; topical in DMSO, listed as StearylVIP", "result": "rats B2 and A3 were sexually active only after"}, {"measurement": "Decrease (shortening) in intromission latency", "setting": "[4]", "result": "about 25%"}, {"measurement": "Increase in ejaculations", "setting": "[4]", "result": "two-fold"}, {"measurement": "Activity upon topical application", "setting": "[1]", "result": "the most active analog"}, {"measurement": "Change in latency", "setting": "[1]; 6 rats", "result": "shortening of latency"}, {"measurement": "Change in number of ejaculations", "setting": "[1]; 6 rats", "result": "clear increase in the number of ejaculations"}, {"measurement": "Change in number of intromissions", "setting": "[1]; 6 rats", "result": "increase in number of intromissions"}, {"measurement": "Ejaculations (E)", "setting": "[1]", "result": "E"}, {"measurement": "No. Ob.", "setting": "[1]", "result": "6 and 28 and 20 and 49 and 31"}, {"measurement": "Int. Latency", "setting": "[1]", "result": "66 ± 15 and 18 ± 3 and 18 ± 2 and 12 ± 3 and 26 ± 1"}]}
{"compound": "VIP-oleyl: VIP coupled to an oleyl moiety, tested as an ointment (HSDAVFTDNYTRLRKQMAVKKYLNSILN-{NH-oleyl}; ends and bridges not checked; UniProt P01282 125-152, looked up)", "values": [{"measurement": "Decrease (shortening) in intromission latency", "setting": "[4]", "result": "~ 10%"}, {"measurement": "Increase in ejaculations", "setting": "[4]", "result": "increased, though much less than stearyl-VIP"}]}
